Each block holds one molecule with its values, some of them ahead of it.
Columns and labels:
His6x-PRMT1 = His6x-PRMT1 (Homo sapiens, UniProt Q99873); test: Single-dose inhibition study with PRMT1 enzyme; assay type: biochemical; conditions: compound at 10 μM, N.I. = no inhibition
PRMT1 [1] = molecular target: T1, PRMT1 (Homo sapiens, UniProt Q99873); test: Fluorescence titration of compound 50 by PRMT1; assay type: binding; conditions: excitation 620 nm
Meg01 cells = test: Cell viability assay; assay type: cell-based
MOLM13 cells = test: Cell viability assay; assay type: cell-based
HEL cells = test: Cell viability assay; assay type: cell-based
[2] = system: total protein arginine methylation in Meg01, MOLM13, and HEL cells; test: Western blot of total protein arginine methylation in treated leukemia cells; assay type: cell-based; conditions: 24 h of treatment; anti-methyl-R antibodies
CARM1/PRMT4 = molecular target: T2, CARM1/PRMT4 (Homo sapiens, UniProt Q86X55); test: IC50 and nH determination, CARM1; assay type: biochemical; conditions: ratio of IC50 values
T2 sequence (Q86X55 1-608): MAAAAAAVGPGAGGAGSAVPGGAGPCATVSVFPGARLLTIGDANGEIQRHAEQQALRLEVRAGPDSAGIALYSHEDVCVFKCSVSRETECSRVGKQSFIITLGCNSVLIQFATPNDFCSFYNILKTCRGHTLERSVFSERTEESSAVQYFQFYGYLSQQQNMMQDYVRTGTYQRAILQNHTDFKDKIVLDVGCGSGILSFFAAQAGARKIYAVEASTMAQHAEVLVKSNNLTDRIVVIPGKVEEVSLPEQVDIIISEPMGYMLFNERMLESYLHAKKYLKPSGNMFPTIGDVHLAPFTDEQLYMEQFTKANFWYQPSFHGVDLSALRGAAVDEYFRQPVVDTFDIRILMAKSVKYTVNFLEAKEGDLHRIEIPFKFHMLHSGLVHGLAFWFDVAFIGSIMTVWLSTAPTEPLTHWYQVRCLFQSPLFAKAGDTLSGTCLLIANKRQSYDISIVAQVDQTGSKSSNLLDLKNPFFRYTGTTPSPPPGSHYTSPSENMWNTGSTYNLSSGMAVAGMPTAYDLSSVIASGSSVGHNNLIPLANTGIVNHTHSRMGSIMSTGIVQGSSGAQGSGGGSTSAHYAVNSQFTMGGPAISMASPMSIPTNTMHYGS

PRMT5 = PRMT5 (Homo sapiens, UniProt O14744); test: IC50 and nH determination, PRMT5; assay type: biochemical; conditions: ratio of IC50 values
PRMT8 = PRMT8 (Homo sapiens, UniProt Q9NR22); test: IC50 and nH determination, PRMT8; assay type: biochemical; conditions: ratio of IC50 values
PRMT1 [3] = molecular target: T1, PRMT1; test: IC50 and nH determination, PRMT1; assay type: biochemical

T1 sequence (Q99873 1-353 isoform Q99873-3): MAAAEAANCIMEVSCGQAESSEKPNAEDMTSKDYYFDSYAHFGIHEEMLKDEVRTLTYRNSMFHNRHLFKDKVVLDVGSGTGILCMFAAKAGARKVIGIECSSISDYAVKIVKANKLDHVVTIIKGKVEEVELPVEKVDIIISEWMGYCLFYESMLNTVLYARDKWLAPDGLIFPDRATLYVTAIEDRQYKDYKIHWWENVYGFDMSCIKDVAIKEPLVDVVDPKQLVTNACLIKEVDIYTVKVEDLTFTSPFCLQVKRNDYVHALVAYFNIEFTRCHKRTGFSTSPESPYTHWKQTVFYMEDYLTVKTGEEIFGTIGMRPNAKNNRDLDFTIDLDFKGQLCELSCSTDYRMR
His6x-PRMT1, sequence (Q99873 1-353 isoform Q99873-3): as above
PRMT8, sequence (Q9NR22 whole entry, species assumed): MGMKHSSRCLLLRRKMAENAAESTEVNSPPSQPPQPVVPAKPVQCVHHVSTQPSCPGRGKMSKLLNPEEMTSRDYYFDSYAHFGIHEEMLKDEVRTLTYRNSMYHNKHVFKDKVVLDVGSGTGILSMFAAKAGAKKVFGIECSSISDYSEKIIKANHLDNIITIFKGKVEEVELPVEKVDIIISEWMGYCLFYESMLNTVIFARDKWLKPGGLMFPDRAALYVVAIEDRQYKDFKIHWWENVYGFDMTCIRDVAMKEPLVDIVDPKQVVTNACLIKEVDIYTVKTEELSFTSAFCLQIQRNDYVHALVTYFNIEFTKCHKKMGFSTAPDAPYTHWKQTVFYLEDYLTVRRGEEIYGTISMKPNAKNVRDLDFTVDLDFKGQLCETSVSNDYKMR
PRMT5, sequence (O14744 whole entry, species assumed): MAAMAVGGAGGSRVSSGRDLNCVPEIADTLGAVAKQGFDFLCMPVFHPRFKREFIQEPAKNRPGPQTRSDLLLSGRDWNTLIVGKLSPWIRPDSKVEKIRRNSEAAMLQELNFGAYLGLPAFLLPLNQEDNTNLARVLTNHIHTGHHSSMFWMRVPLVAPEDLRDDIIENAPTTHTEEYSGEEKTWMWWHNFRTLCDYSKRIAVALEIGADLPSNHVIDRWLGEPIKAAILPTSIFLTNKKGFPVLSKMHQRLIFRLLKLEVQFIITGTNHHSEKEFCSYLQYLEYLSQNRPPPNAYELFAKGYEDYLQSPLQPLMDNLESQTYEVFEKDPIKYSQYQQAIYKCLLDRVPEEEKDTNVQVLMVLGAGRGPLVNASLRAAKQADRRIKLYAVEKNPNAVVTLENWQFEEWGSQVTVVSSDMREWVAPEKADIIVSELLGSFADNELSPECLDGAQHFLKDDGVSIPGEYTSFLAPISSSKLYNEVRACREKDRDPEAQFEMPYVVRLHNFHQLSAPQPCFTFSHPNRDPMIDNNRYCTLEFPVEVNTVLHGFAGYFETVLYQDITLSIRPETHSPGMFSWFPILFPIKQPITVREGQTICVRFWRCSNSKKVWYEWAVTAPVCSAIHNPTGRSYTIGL
PRMT5, sequence (Q9BQA1 whole entry partner, species assumed): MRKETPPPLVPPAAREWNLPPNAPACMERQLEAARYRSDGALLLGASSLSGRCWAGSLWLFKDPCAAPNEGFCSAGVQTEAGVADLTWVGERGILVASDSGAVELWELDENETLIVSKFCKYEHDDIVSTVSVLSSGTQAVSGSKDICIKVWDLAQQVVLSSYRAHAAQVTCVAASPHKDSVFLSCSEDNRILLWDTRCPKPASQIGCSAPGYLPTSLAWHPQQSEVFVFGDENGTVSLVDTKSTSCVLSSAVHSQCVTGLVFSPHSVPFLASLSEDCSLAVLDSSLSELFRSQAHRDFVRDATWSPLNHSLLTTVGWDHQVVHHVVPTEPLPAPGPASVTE

Compound: CCCCN1/C(=C/C=C/C2=[N+](CCCC)c3ccccc3C2(C)C)C(C)(C)c2ccccc21.[I-] [Compound E-6]
Inhibition (10 μM) (His6x-PRMT1; PRMT1, 10 µM): no inhibition

Compound: CCCCN1/C(=C/C=C(Br)/C=C/C2=[N+](CCCC)c3ccc(Br)cc3C2(C)C)C(C)(C)c2cc(Br)ccc21.[I-] [Compound 50, 5-Bromo-2-((1E,3Z)-3-bromo-5-((E)-5-bromo-1-butyl-3,3-dimethylindolin-2-ylidene)penta-1,3-dien-1-yl)-1-butyl-3,3-dimethyl-3H-indol-1-ium Iodide]
fluorescence intensity increase upon binding to PRMT1 (PRMT1 [1]): about 6 fold
concentration that significantly inhibited leukemia cell growth (Meg01 cells): 100 nM
concentration that significantly inhibited leukemia cell growth (MOLM13 cells): 100 nM
concentration that significantly inhibited leukemia cell growth (HEL cells): 200 nM
total protein arginine methylation level [2]: significant loss of total protein arginine methylation

Compound: CC1(C)C(/C=C/C=C2/N(CCCc3ccccc3)c3ccc(Cl)cc3C2(C)C)=[N+](CCCc2ccccc2)c2ccc(Cl)cc21.[Br-] [Compound 24, 5-Chloro-2-((E)-3-((E)-5-chloro-3,3-dimethyl-1-(3-phenylpropyl)indolin-2-ylidene)prop-1-en-1-yl)-3,3-dimethyl-1-(3-phenylpropyl)-3H-indol-1-ium Bromide]
selectivity for PRMT1 over other PRMTs (CARM1, PRMT5, and PRMT8) (PRMT1 [3]; overall statement): no selectivity

Compound: CC1(C)C(/C=C/C=C2/N(CCCc3ccccc3)c3ccc4ccccc4c3C2(C)C)=[N+](CCCc2ccccc2)c2ccc3ccccc3c21.[Br-] [Compound E-8]
fold more potent on PRMT1 than naphthothiazolium counterpart 47 (PRMT1 [3]; IC50 0.61 μM vs 3.05 μM): about 5 fold

Further lines, results first:

inhibition at 10 µM (His6x-PRMT1; read-out: Inhibition (10 μM), PRMT1): 90%
Compound: CCN1/C(=C/C(C)=C/c2sc3c4ccccc4ccc3[n+]2CC)Sc2c1ccc1ccccc21 [Compound 48, 3-Ethyl-2-((1E,3Z)-3-(3-ethylnaphtho[2,1-d]thiazol-2(3H)-ylidene)-2-methylprop-1-en-1-yl)naphtho[2,1-d]thiazol-3-ium Iodide]

selectivity for PRMT1 over CARM1 (CARM1/PRMT4): about 2 fold
selectivity for PRMT1 over PRMT5 (PRMT5): about 2 fold
selectivity for PRMT1 over PRMT8 (PRMT8): more than 9 fold
Compound: C(/C=C/c1sc2c3ccccc3ccc2[n+]1CCCc1ccccc1)=C1/Sc2c(ccc3ccccc23)N1CCCc1ccccc1.[I-] [Compound 47, 3-(3-Phenylpropyl)-2-((1E,3Z)-3-(3-(3-phenylpropyl)naphtho[2,1-d]thiazol-2(3H)-ylidene)prop-1-en-1-yl)naphtho[2,1-d]thiazol-3-ium Iodide]

From publication PMC4610307 (Journal of Medicinal Chemistry, 2015)
